Source: patent US6866833B1, “Substituted thiourea complexing agent and a method for extracting a noble metal from a matrix using the complexing agent” (University College Cork, priority 1999, dated 2005)

What was measured:
[1] = Solubility of the ligand in supercritical CO2 (weight loss of glass tube after static SFE); format: physicochemical; conditions: 60° C.; for Solubility in SF—CO2: approx. 60 mg ligand, 2.2 ml 100% SF—CO2, static 30 minutes, 200 and 300 atmospheres
Procedure: The solubility of the ligand of the comparative Examples (a)-(c) in supercritical CO2 was compared with the solubilities of the ligands of Examples 1 and 2 and 3 in supercritical CO2.
In each case, a weighed amount of the ligand of the respective comparative Example of approximately 60 mg was placed in a glass tube (2 cm×0.5 cm i.d.) and plugged with glass wool at both ends. The glass tube was placed inside the extraction vessel and statically extracted for 30 minutes. The inlet valve for SF—CO2 was then closed and the outlet valve opened into a collecting solution. The loss of weight of the glass tube after SFE corresponded to the solubility of the ligand in 2.2 ml 100% SF—CO2. The procedure was carried out at 60° C. and two different pressures namely 200 and 300 atmospheres.

[2] = Supercritical fluid extraction of Au(III) as AuCl4^− from filter paper, gold determined by atomic absorption spectroscopy; conditions: observed after Au(III) SFE runs, 20 mg ligand
Procedure: Gold Au(III) extraction by the ligand of the comparative Example (a) was investigated employing a BDH Gold (III) standard containing 1000 ppm Au(III) (aqueous AuCl4^−). Thus 60 μl of solution Au(III) containing 3.05×10^−7 moles Au(III) was applied to a 3 cm diameter filter paper. The filter paper was allowed to dry and then placed in a glass tube (2 cm×0.5 cm i.d.), plugged with glass wool at both ends. 20 mg of ligand of the comparative Example (a) (in excess of over 200 fold over Au(III) level) was then placed in the same glass tube and plugged with glass wool.
The extraction vessel was statically extracted for 20 minutes and then dynamically extracted into a collecting solvent of 4 ml methanol for 15 minutes (0.8 ml CO2/minute flow rate). The methanol solution was then made up to 10 ml using additional methanol. Levels of gold in solution were then determined by atomic absorption spectroscopy. The procedure was carried out at different pressures from 200-400 atm. The following extraction percentages were obtained:
The procedure in Example 5(a) was repeated except the temperature of the extraction procedure was varied from 60-120° C., while maintaining the pressure of the extractor at 400 atm. The following results were obtained:
The procedure in Example 6 was repeated with the ligand from Example 1 being used in place of the ligand of the Comparative Example (a). The following % extraction values were obtained at differing pressures for extraction of Au(III):
The procedure of Example 7 was repeated employing the ligand of Example 2 in place of the ligand of Example 1 and utilising 50 μl Au(III) standard solution in place of 60 μl to give the following % extraction results at differing pressures of SF—CO2 at 60° C.

Structure (SMILES) | Solubility in SF—CO2 (ligand remaining in glass tube after extraction runs) [2] | Solubility in SF—CO2 [1] | solubility at 30 min ([1]; supercritical CO2, organic solvent or mixture, thermodynamic from solid, larger amounts of ligand, both pressures (200 and 300 atmospheres), read-out: Solubility in SF—CO2) [mM]
FC(F)(F)c1cc(NC(=S)NCC(F)(F)C(F)(F)C(F)(F)C(F)(F)C(F)(F)C(F)(F)C(F)(F)F)cc(C(F)(F)F)c1 [Example 3(a)] |  | excellent solubility | 
CNC(=S)NCC(F)(F)C(F)(F)C(F)(F)F [Example 3(b), N-methyl, N′-heptafluorobutyl thiourea] |  | excellent solubility | > 700
FC(F)(F)c1cc(NC(=S)NCC(F)(F)C(F)(F)C(F)(F)F)cc(C(F)(F)F)c1 [Example 1] |  | excellent solubility | 
FC(F)(F)CNC(=S)Nc1cc(C(F)(F)F)cc(C(F)(F)F)c1 [Example 2] |  | excellent solubility | 

Second part, led by results:

Solubility in SF—CO2 (ligand remaining in glass tube after extraction runs) [2] | Structure (SMILES) | Solubility in SF—CO2 [1] | solubility at 30 min ([1]; supercritical CO2, organic solvent or mixture, thermodynamic from solid, larger amounts of ligand, both pressures (200 and 300 atmospheres), read-out: Solubility in SF—CO2) [mM]
poor solubility | CCCCCCCCNC(=S)NC [Comparative Example (b), N-methyl,N′-octyl thiourea] |  | 
poor solubility | NC(=S)Nc1cc(C(F)(F)F)cc(C(F)(F)F)c1 [Comparative Example (a)] |  | 
poor solubility | CCCCCCCCCCCCNC(=S)NC [Comparative Example (c), N-methyl, N′-dodecyl thiourea] |  | 
